Experimental data published in patent US12070457B2, “Substituted pyridines, pyridazines, pyrimidines, and 1,2,3-triazines as bruton's tyrosine kinase inhibitors” (HUTCHISON MEDIPHARMA LIMITED, priority 2020, dated 2024).

Experiments:
[1] = tested on: TMD8 subcutaneous xenograft (human diffuse large B-cell lymphoma cells); test: In vivo efficacy in TMD8 subcutaneous xenograft model; design: species or system mouse; settings: 10 mg/kg and 30 mg/kg vs Ibrutinib 50 mg/kg and GDC-0853 10 mg/kg
Procedure: Example 7 Evaluation of In Vivo Efficacy of the Compound of the Present Invention in TMD8 Subcutaneous Xenograft Model
Objects: To investigate the anti-tumor activity of compound 19 in TMD8 subcutaneous xenograft model in nude mice.
Methods: Human diffuse large B-cell lymphoma cells TMD8 (acquired under license from Tokyo Medical and Dental University) were cultured in RPMI1640 medium containing 10% fetal bovine serum. 1×10^7 tumor cells suspended in RPMI1640 medium mixed well with Matrigel (purchased from Corning, USA) at 1:1 were implanted subcutaneously on the right flank of each male Balb/c nude mouse (Shanghai Lingchang Biotechnology Co., Ltd.), pretreated with cyclophosphamide (at a dose of 200 mg/kg, intraperitoneal injection 24 h before cell inoculation). […] All drugs were administered by oral gavage, once a day, and the vehicle control group was administered orally with 0.5% hydroxypropyl methylcellulose solution (pH=3).
Tumor volumes (tumor volume=0.5× long diameter× short diameter^2) and body weights of the mice were measured regularly. The tumor volume change and body weight were statistically analyzed, with p<0.05 considered statistically significant, and p<0.01 as extremely statistically significant.
The anti-tumor activity was evaluated by tumor growth inhibition. […]

[2] = Stability test in liver microsomes (mouse); type: in vitro ADME; settings: 1 μM compound
Outline: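 Compound (1 μM final) incubated 30 min at 37 °C with male CD-1 mouse or male SD rat pooled liver microsomes (0.5 mg/mL) in 50 mM phosphate buffer with 3 mM MgCl2, 1 mM EDTA and NADPH-regenerating system. Quenched with acetonitrile containing internal standard; LC-MS/MS gives percent remaining relative to 0-min sample.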

C[C@H]1CN(C2COC2)CCN1c1ccc(Nc2cc(-c3ccnc(-n4ccn5c6c(cc5c4=O)CC(C)(C)C6)c3CO)cn(C)c2=O)nc1 [Compound 19]
anti-tumor efficacy compared with Ibrutinib or GDC-0853 [1]: statistically significant superior efficacy to Ibrutinib or GDC-0853 | stability in mouse liver microsomes compared with reference GDC-0853 ([2]; 0.5 mg/mL liver microsomes, 30 minutes incubation): better than that of the reference GDC-0853 | MLM, percentage of remaining compound after 30 minutes of incubation ([2]; mouse liver microsomes, 30 min): 91.8%
